Key:
Assay type in all cases: cell-based
Conditions in all cases: final concentration 1 μmol/l
[1] = test system: blood vessel of an apoaequorin transgenic mouse; assay: Intracellular calcium (aequorin luminescence) in blood vessel pieces of apoaequorin transgenic mouse
Method: (§1) In order to evaluate physiological activities of the peptides prepared in Example 1, the prepared peptides were allowed to act upon organs excised from the living body, and changes in the concentration of an intracellular signal transduction substance in cells constituting the organs were measured.
(§2) In order to measure changes in the concentration of an intracellular signal transduction substance in cells constituting the organs, a transgenic mouse prepared by integrated an apoaequorin gene expression vector into a chromosome was used. Specifically, a female mouse derived from the transgenic mouse disclosed in Reference Example 4 as an individual number 98075-04-6 was used in the test. The transgenic mouse was prepared and reared as an SPF animal in a clean room, and was not contaminated with pathogens including mouse hepatitis virus, Sendai virus, mycoplasma and Tyzzer bacterium.
Aequorin is a bioluminescent protein complex which is present in the umbrella region of luminescent Aequorea victoria. Aequorin is constituted from its protein moiety apoaequorin, its luminescence substrate coelent razin and molecular oxygen, and emits light by its binding with calcium ion. Since expression of the apoaequorin protein has been confirmed in at least thymus, spleen, abdominal muscle, diaphragm, kidney, crystalline lens, pancreas, fat tissue, liver, skull, blood vessel, ovary, womb and adrenal gland of the transgenic mouse used in the test, it was able to monitor changes in the intracellular calcium ion concentration in these organs with a high sensitivity.
Organs were prepared from offsprings borne from the female of individual number 98075-04-6 to examine the activities of the peptides produced in Example 1. After the offsprings were killed, the thymus, spleen, abdominal muscle, diaphragm, kidney, crystalline lens, pancreas, fat tissue, liver, skull, blood vessel, ovary, womb and adrenal gland were excised. Each of the excised organs was cut into small cubes of about 1 to 2 mm square in PBS containing 10 units/ml of heparin sodium and thoroughly washed by changing the solution. Next, three pieces of each of the organ samples thus prepared were put into a 5 ml capacity tube (Rohren-Tubes; No. 55.476, manufactured by Sarstedt) which had been charged with RPMI 1640 medium containing 200 μl of 10 μmol/l coelenterazine (manufactured by Molecular Probes), and cultured at 37° C. for 5 hours. Five hours after, various substances shown below dissolved in RPMI 1640 medium were added at 200 μl, and the luminescence was measured just after the addition at 1 second intervals using a luminometer AutoLumat LB953 (manufactured by BERTHOLD).

[2] = test system: womb of an apoaequorin transgenic mouse; assay: Intracellular calcium (aequorin luminescence) in womb pieces of apoaequorin transgenic mouse
Method: as §1
as §2, with “The transgenic mouse was prepared and reared as an SPF animal in a clean room, and was not contaminated with pathogens including mouse hepatitis virus, Sendai virus, mycoplasma and Tyzzer bacterium.” left out
(§3) Aequorin is a bioluminescent protein complex which is present in the umbrella region of luminescent Aequorea victoria. Aequorin is constituted from its protein moiety apoaequorin, its luminescence substrate coelent razin and molecular oxygen, and emits light by its binding with calcium ion. […]
(§4) Organs were prepared from offsprings borne from the female of individual number 98075-04-6 to examine the activities of the peptides produced in Example 1. […] Five hours after, various substances shown below dissolved in RPMI 1640 medium were added at 200 μl, and the luminescence was measured just after the addition at 1 second intervals using a luminometer AutoLumat LB953 (manufactured by BERTHOLD).

[3] = test system: adrenal gland of an apoaequorin transgenic mouse; assay: Intracellular calcium (aequorin luminescence) in adrenal gland pieces of apoaequorin transgenic mouse
Method: as §1
as §2, with “The transgenic mouse was prepared and reared as an SPF animal in a clean room, and was not contaminated with pathogens including mouse hepatitis virus, Sendai virus, mycoplasma and Tyzzer bacterium.” left out
as §3, §4

Measured: luminescence (intracellular calcium increase)

angiotensin II [purchased from Research Biochemicals International (product code: A-151)]
Strong luminescence: [1] | [2] | [3]

— patent US20040081972A1, “Novel physiologically active peptide and use thereof” (priority 2000, published 2004)
